Assay results: patent US7981903B2, “2-[2-{phenylamino}-1H-pyrrolo[2,3-D]pyrimidin-4-yl)amino] benzamide derivatives as IGF-1R inhibitors for the treatment of cancer” (GlaxoSmithKline LLC, priority 2007, dated 2011)
One block for each molecule: values may come before it.

Assays:
[1] = biological target: T1, NIH-3T3 cells overexpressing human IGF-1R (Homo sapiens, UniProt P08069); experiment: IGF-1R cellular autophosphorylation (DELFIA); assay type: cell-based
T1 construct: expressed in transfected cells; host or cells: NIH-3T3 (mouse fibroblasts)
T1 sequence (P08069 31-1367): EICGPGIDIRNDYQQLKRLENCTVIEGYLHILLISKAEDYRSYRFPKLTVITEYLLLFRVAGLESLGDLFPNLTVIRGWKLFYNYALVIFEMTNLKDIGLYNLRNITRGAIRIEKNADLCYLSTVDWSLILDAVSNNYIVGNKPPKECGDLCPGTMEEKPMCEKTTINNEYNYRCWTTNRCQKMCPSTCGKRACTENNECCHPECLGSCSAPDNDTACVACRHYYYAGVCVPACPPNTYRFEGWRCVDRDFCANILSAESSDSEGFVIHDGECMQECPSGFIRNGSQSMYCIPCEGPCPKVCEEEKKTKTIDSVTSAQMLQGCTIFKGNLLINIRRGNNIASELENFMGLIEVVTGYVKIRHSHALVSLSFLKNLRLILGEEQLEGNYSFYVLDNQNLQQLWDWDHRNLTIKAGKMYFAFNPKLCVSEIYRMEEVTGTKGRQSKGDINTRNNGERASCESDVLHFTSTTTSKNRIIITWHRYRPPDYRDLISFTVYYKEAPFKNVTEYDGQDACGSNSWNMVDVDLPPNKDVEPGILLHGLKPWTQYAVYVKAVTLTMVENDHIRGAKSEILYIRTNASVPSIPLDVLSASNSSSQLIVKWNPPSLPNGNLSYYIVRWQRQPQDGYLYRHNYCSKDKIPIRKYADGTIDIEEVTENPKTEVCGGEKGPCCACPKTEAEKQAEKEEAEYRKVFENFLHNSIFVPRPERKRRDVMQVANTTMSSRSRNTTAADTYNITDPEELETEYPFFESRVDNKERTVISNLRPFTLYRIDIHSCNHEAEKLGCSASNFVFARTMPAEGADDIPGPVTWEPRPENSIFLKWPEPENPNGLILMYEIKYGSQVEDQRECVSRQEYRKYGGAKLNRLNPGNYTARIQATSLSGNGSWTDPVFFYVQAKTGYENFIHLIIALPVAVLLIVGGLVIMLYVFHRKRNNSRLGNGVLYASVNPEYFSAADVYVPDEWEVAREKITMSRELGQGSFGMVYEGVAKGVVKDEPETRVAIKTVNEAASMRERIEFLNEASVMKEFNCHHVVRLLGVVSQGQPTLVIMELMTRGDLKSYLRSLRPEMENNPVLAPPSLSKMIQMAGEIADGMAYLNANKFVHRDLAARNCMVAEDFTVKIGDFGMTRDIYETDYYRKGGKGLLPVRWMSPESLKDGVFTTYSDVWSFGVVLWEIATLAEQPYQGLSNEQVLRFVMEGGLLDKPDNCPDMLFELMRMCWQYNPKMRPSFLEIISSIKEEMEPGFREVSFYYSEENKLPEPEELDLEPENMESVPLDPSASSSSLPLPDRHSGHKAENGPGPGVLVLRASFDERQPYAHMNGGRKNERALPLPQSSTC
In short: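 Receptor autophosphorylation measured by DELFIA, capturing IGF-1R or IRβ and detecting with europium anti-pTyr, reported as percent of IGF-1- or insulin-stimulated signal. Compounds (30 uM to 1.5 nM) added 2 h before ligand, then 15 min stimulation (IGF-1 30 ng/ml or insulin 3 ug/ml).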

[2] = biological target: T2, human IGF1R (hIGF1R) (Homo sapiens, UniProt P08069); experiment: TR-FRET kinase assay of purified hIGF1R; assay type: biochemical; settings: activated hIGF1R 0.5 nM, 10 μM ATP, values given as pIC50 category, read-out: IGF-1R pIC50 (converted)
T2 construct: containing amino acid residues 957-1367 of human IGF1R; made in house; host or cells: Sf9 cells (baculovirus)
T2 sequence (P08069 957-1367): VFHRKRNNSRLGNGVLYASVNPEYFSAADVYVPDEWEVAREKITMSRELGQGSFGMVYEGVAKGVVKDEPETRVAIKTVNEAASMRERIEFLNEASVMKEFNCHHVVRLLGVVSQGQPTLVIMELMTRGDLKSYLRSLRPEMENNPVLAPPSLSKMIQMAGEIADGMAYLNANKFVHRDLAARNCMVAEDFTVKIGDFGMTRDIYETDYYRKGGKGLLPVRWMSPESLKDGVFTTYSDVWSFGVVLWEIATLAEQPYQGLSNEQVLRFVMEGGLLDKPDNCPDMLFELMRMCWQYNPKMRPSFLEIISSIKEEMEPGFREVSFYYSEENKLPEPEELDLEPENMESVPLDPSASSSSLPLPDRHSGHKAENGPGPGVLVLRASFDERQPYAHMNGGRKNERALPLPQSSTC

[3] = biological target: T3, human IR (hIR) (Homo sapiens, UniProt P06213); experiment: TR-FRET kinase assay of purified hIR; assay type: biochemical; settings: activated hIR 0.5 nM, 10 μM ATP, values given as pIC50 category
T3 construct: containing amino acid residues 979-1382 of human IR; made in house; host or cells: Sf9 cells (baculovirus), same process as hIGF1R
T3 sequence (P06213 979-1382): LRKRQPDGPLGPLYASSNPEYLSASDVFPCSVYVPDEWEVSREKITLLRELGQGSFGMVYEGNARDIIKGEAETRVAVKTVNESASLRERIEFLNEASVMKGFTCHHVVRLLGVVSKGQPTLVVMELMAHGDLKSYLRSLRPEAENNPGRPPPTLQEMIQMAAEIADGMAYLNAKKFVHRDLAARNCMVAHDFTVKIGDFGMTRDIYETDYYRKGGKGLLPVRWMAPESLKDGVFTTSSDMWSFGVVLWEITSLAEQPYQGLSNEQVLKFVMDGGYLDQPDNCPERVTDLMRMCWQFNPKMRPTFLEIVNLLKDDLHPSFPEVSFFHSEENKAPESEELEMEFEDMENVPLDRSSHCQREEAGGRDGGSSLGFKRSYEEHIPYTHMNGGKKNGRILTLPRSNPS

- IC50 [1]: 100 to 500 nM
- IC50 [2]: 5.01 to 200 nM
- IC50 [3]: 5.01 to 158 nM
SMILES: COc1cc2c(cc1Nc1nc(Nc3cccc(F)c3C(N)=O)c3cc[nH]c3n1)N(C(=O)CCN(C)C)CC2 [Example 118, 2-[(2-{[1-(N,N-dimethyl-b-alanyl)-5-(methyloxy)-2,3-dihydro-1H-indol-6-yl]amino}-1H-pyrrolo[2,3-d]pyrimidin-4-yl)amino]-6-fluorobenzamide]

- IC50 [1]: 100 to 500 nM
- IC50 [2]: 5.01 to 200 nM
- IC50 [3]: 5.01 to 158 nM
SMILES: COc1cc2c(cc1Nc1nc(Nc3cccc(F)c3C(N)=O)c3cc[nH]c3n1)N(C(=O)CN1CCN(C(C)C)CC1)CC2 [Example 186, 2-fluoro-6-[(2-{[1-{[4-(1-methylethyl)-1-piperazinyl]acetyl}-5-(methyloxy)-2,3-dihydro-1H-indol-6-yl]amino}-1H-pyrrolo[2,3-d]pyrimidin-4-yl)amino]benzamide]

- IC50 [1]: < 100 nM
- IC50 [2]: 0.251 to 1 nM
- IC50 [3]: 0.251 to 1 nM
SMILES: CCCN1CCC(c2ccc(Nc3nc(Nc4cc(F)cc(F)c4C(N)=O)c4cc[nH]c4n3)c(OC)c2)CC1 [Example 92, 2,4-difluoro-6-[(2-{[2-(methyloxy)-4-(1-propyl-4-piperidinyl)phenyl]amino}-1H-pyrrolo[2,3-d]pyrimidin-4-yl)amino]benzamide]

- IC50 [1]: > 500 nM
- IC50 [2]: 5.01 to 200 nM
- IC50 [3]: 1.26 to 3.98 nM
SMILES: COc1cc2c(cc1Nc1nc(Nc3cccc(F)c3C(N)=O)c3cc[nH]c3n1)CN(CCCN(C)C)CC2 [Example 232, 2-[(2-{[2-[3-(dimethylamino)propyl]-6-(methyloxy)-1,2,3,4-tetrahydro-7-isoquinolinyl]amino}-1H-pyrrolo[2,3-d]pyrimidin-4-yl)amino]-6-fluorobenzamide]

- IC50 [1]: 100 to 500 nM
- IC50 [2]: 5.01 to 200 nM
- IC50 [3]: 1.26 to 3.98 nM
SMILES: COc1cc(OCCCN2CCN(C)CC2)ccc1Nc1nc(Nc2cccc(F)c2C(N)=O)c2cc[nH]c2n1 [Example 205, 2-fluoro-6-({2-[(2-(methyloxy)-4-{[3-(4-methyl-1-piperazinyl)propyl]oxy}phenyl)amino]-1H-pyrrolo[2,3-d]pyrimidin-4-yl}amino)benzamide]

- IC50 [1]: < 100 nM
- IC50 [2]: 0.251 to 1 nM
- IC50 [3]: 0.251 to 1 nM
SMILES: CCCN1CCCC(c2ccc(Nc3nc(Nc4ccccc4C(N)=O)c4cc[nH]c4n3)c(OC)c2)C1 (stereo not drawn) [Example 3, 2-[(2-{[2-(methyloxy)-4-(1-propyl-3-piperidinyl)phenyl]amino}-1H-pyrrolo[2,3-d]pyrimidin-4-yl)amino]benzamide]

- IC50 [1]: < 100 nM
- IC50 [2]: 0.251 to 1 nM
- IC50 [3]: 1.26 to 3.98 nM
SMILES: CCNC(=O)c1c(F)cc(F)cc1Nc1nc(Nc2cc3c(cc2OC)CCCN3C(=O)CN(C)C)nc2[nH]ccc12 [Example 180, 2-[(2-{[1-(N,N-dimethylglycyl)-6-(methyloxy)-1,2,3,4-tetrahydro-7-quinolinyl]amino}-1H-pyrrolo[2,3-d]pyrimidin-4-yl)amino]-N-ethyl-4,6-difluorobenzamide]

- IC50 [1]: > 500 nM
- IC50 [2]: 5.01 to 200 nM
- IC50 [3]: 5.01 to 158 nM
SMILES: COc1cc(N2CCCN(S(C)(=O)=O)CC2)ccc1Nc1nc(Nc2cccc(F)c2C(N)=O)c2cc[nH]c2n1 [Example 207, 2-fluoro-6-{[2-({2-(methyloxy)-4-[4-(methylsulfonyl)hexahydro-1H-1,4-diazepin-1-yl]phenyl}amino)-1H-pyrrolo[2,3-d]pyrimidin-4-yl]amino}benzamide]

Second part, the molecule before the results:

SMILES: CCCN(CCC)[C@@H](C)C(=O)N1CCc2cc(OC)c(Nc3nc(Nc4cccc(F)c4C(=O)NC)c4cc[nH]c4n3)cc21 [Example 191, 2-[(2-{[1-(N,N-dipropyl-L-alanyl)-5-(methyloxy)-2,3-dihydro-1H-indol-6-yl]amino}-1H-pyrrolo[2,3-d]pyrimidin-4-yl)amino]-6-fluoro-N-methylbenzamide]
- IC50 [1]: 100 to 500 nM
- IC50 [2]: 5.01 to 200 nM
- IC50 [3]: 5.01 to 158 nM

SMILES: CCCN1CCC=C(c2ccc(Nc3nc(Nc4ccc(F)cc4C(N)=O)c4cc[nH]c4n3)c(OC)c2)C1 [Example 54, 5-fluoro-2-[(2-{[2-(methyloxy)-4-(1-propyl-1,2,5,6-tetrahydro-3-pyridinyl)phenyl]amino}-1H-pyrrolo[2,3-d]pyrimidin-4-yl)amino]benzamide]
- IC50 [1]: 100 to 500 nM
- IC50 [2]: 0.251 to 1 nM
- IC50 [3]: 0.251 to 1 nM

SMILES: CCN(CC)CC(=O)N1CCc2cc(OC)c(Nc3nc(Nc4cccc(F)c4C(=O)NC)c4cc[nH]c4n3)cc21 [Example 137, 2-[(2-{[1-(N,N-diethylglycyl)-5-(methyloxy)-2,3-dihydro-1H-indol-6-yl]amino}-1H-pyrrolo[2,3-d]pyrimidin-4-yl)amino]-6-fluoro-N-methylbenzamide]
- IC50 [1]: 100 to 500 nM
- IC50 [2]: 5.01 to 200 nM
- IC50 [3]: 5.01 to 158 nM

SMILES: CNC(=O)c1c(F)cccc1Nc1nc(Nc2cc3c(cc2OC)CCCN3C(=O)CCN(C)C)nc2[nH]ccc12 [Example 213, 2-[(2-{[1-(N,N-dimethyl-β-alanyl)-6-(methyloxy)-1,2,3,4-tetrahydro-7-quinolinyl]amino}-1H-pyrrolo[2,3-d]pyrimidin-4-yl)amino]-6-fluoro-N-methylbenzamide]
- IC50 [1]: > 500 nM
- IC50 [2]: 5.01 to 200 nM
- IC50 [3]: 5.01 to 158 nM

SMILES: COc1cc2c(cc1Nc1nc(Nc3ccc(F)c(F)c3C(=O)NC(C)C)c3cc[nH]c3n1)N(C(=O)CN(C)C)CC2 [Example 161, 6-[(2-{[1-(N,N-dimethylglycyl)-5-(methyloxy)-2,3-dihydro-1H-indol-6-yl]amino}-1H-pyrrolo[2,3-d]pyrimidin-4-yl)amino]-2,3-difluoro-N-(1-methylethyl)benzamide]
- IC50 [1]: 100 to 500 nM
- IC50 [2]: 5.01 to 200 nM
- IC50 [3]: 5.01 to 158 nM

SMILES: COc1cc(N2CCC(N3CCOCC3)CC2)ccc1Nc1nc(Nc2cc(F)ccc2C(N)=O)c2cc[nH]c2n1 [Example 78, 4-fluoro-2-{[2-({2-(methyloxy)-4-[4-(4-morpholinyl)-1-piperidinyl]phenyl}amino)-1H-pyrrolo[2,3-d]pyrimidin-4-yl]amino}benzamide]
- IC50 [1]: < 100 nM
- IC50 [2]: 0.251 to 1 nM
- IC50 [3]: 1.26 to 3.98 nM

SMILES: CCN(C)CC(=O)N1CCc2cc(OC)c(Nc3nc(Nc4cccc(F)c4C(=O)NC)c4cc[nH]c4n3)cc21 [Example 165, 2-[(2-{[1-(N-ethyl-N-methylglycyl)-5-(methyloxy)-2,3-dihydro-1H-indol-6-yl]amino}-1H-pyrrolo[2,3-d]pyrimidin-4-yl)amino]-6-fluoro-N-methylbenzamide]
- IC50 [1]: 100 to 500 nM
- IC50 [2]: 5.01 to 200 nM
- IC50 [3]: 5.01 to 158 nM

SMILES: COc1cc2c(cc1Nc1nc(Nc3cccc(F)c3C(N)=O)c3cc[nH]c3n1)CN(C(=O)CCN1CCOCC1)CC2 [Example 231, 2-fluoro-6-{[2-({6-(methyloxy)-2-[3-(4-morpholinyl)propanoyl]-1,2,3,4-tetrahydro-7-isoquinolinyl}amino)-1H-pyrrolo[2,3-d]pyrimidin-4-yl]amino}benzamide]
- IC50 [1]: 100 to 500 nM
- IC50 [2]: 5.01 to 200 nM
- IC50 [3]: 5.01 to 158 nM

SMILES: COc1cc2c(cc1Nc1nc(Nc3cc(Cl)cc(F)c3C(N)=O)c3cc[nH]c3n1)N(C(=O)CN(C)C)CC2 [Example 119, 4-chloro-2-[(2-{[1-(N,N-dimethylglycyl)-5-(methyloxy)-2,3-dihydro-1H-indol-6-yl]amino}-1H-pyrrolo[2,3-d]pyrimidin-4-yl)amino]-6-fluorobenzamide]
- IC50 [1]: < 100 nM
- IC50 [2]: 0.251 to 1 nM
- IC50 [3]: 0.251 to 1 nM

SMILES: COc1cc2c(cc1Nc1nc(Nc3cccc(F)c3C(N)=O)c3cc[nH]c3n1)N(C(=O)CN1CCOCC1)CC2 [Example 185, 2-fluoro-6-[(2-{[5-(methyloxy)-1-(4-morpholinylacetyl)-2,3-dihydro-1H-indol-6-yl]amino}-1H-pyrrolo[2,3-d]pyrimidin-4-yl)amino]benzamide]
- IC50 [1]: < 100 nM
- IC50 [2]: 5.01 to 200 nM
- IC50 [3]: 5.01 to 158 nM

SMILES: CCC(C)N1CCc2cc(OC)c(Nc3nc(Nc4cccc(F)c4C(=O)NC)c4cc[nH]c4n3)cc2C1 (stereo not drawn) [Example 238, 2-fluoro-N-methyl-6-[(2-{[6-(methyloxy)-2-(1-methylpropyl)-1,2,3,4-tetrahydro-7-isoquinolinyl]amino}-1H-pyrrolo[2,3-d]pyrimidin-4-yl)amino]benzamide]
- IC50 [1]: > 500 nM
- IC50 [2]: 5.01 to 200 nM
- IC50 [3]: 1.26 to 3.98 nM

SMILES: CNC(=O)c1c(F)cc(F)cc1Nc1nc(Nc2cc3c(cc2OC)CCCN3C(=O)CN(C)C)nc2[nH]ccc12 [Example 179, 2-[(2-{[1-(N,N-dimethylglycyl)-6-(methyloxy)-1,2,3,4-tetrahydro-7-quinolinyl]amino}-1H-pyrrolo[2,3-d]pyrimidin-4-yl)amino]-4,6-difluoro-N-methylbenzamide]
- IC50 [1]: < 100 nM
- IC50 [2]: 0.251 to 1 nM
- IC50 [3]: 0.251 to 1 nM

SMILES: CN(C)CC(=O)Nc1ccc(F)c(Nc2nc(Nc3ccccc3C(N)=O)c3cc[nH]c3n2)c1 [Example 17, 2-{[2-({5-[(N,N-dimethylglycyl)amino]-2-fluorophenyl}amino)-1H-pyrrolo[2,3-d]pyrimidin-4-yl]amino}benzamide]
- IC50 [1]: < 100 nM
- IC50 [2]: 0.251 to 1 nM
- IC50 [3]: 0.251 to 1 nM

SMILES: COc1cc2c(cc1Nc1nc(Nc3cccc(F)c3C(N)=O)c3cc[nH]c3n1)N(C(=O)CCN1CCN(C(C)C)CC1)CC2 [Example 188, 2-fluoro-6-[(2-{[1-{3-[4-(1-methylethyl)-1-piperazinyl]propanoyl}-5-(methyloxy)-2,3-dihydro-1H-indol-6-yl]amino}-1H-pyrrolo[2,3-d]pyrimidin-4-yl)amino]benzamide]
- IC50 [1]: > 500 nM
- IC50 [2]: 5.01 to 200 nM
- IC50 [3]: 5.01 to 158 nM
